In patent US20260327211A1, “MODULATORS OF A POTASSIUM CHANNEL AND OF TRPV1 CHANNEL AND USES THEREOF” (Bsense Bio Therapeutics Ltd., priority 2023, published 2026):
Where two headings read alike, the source gives them in different places.

Tests used:
[1] = Log D, 1-octanol/buffer shake flask; format: physicochemical; conditions: pH 7.4
Protocol: The Log D assay was a miniaturized 1-octanol/buffer shake flask method followed by LC/MS/MS analysis, as follows.
The test compounds or control compounds Nadolol, Chlorpromazine Hydrochloride and Propranolol Hydrochloride were dissolved in 100% DMSO to obtain 10 mM solutions, which were transferred to 96-well polypropylene cluster tubes; 2 μL/well. 1-octanol saturated with 0.1 M phosphate buffer (149 μL/well) and 0.1 M phosphate buffer saturated with 1-octanol (149 μL/well) were added to the tubes, respectively, and each tube was vigorously mixed for 2 minutes and then shaked at a speed of 800 rpm at room temperature for 1 hour, followed by centrifugation at 4000 rpm for 5 minutes at room temperature. Thereafter, for the test compounds and the Chlorpromazine Hydrochloride and Propranolol Hydrochloride, the sample of the buffer layer was diluted by a factor of 50-fold and the sample of 1-octanol layer was diluted by a factor of 2000-fold with internal standard (IS) solution. For Nadolol, the sample of the buffer layer was diluted by a factor of 1000-fold and the sample of 1-octanol layer was diluted by a factor of 400-fold with internal standard (IS) solution. The samples were analyzed using a triple quadrupole mass spectrometer. Peak areas were corrected by dilution factors and embedded internal standard, and the ratio of the corrected peak areas was used to calculate the Log D value. The Log D value for each compound will be calculated by the following equation: […]

[2] = Human liver microsome metabolic stability; format: in vitro ADME; conditions: for HLM T1/2 / half-life at 1 µM: human liver microsomes; for HLM T1/2: 1 µM; for half-life at 1 µM: human, liver microsomes, read-out: HLM T1/2
From the text: Liver microsomes which are subcellular particles derived from endoplasmic reticulum of hepatic cells were used for evaluating the tested compounds. These particles are rich in drug metabolizing enzymes, including the cytochrome p-450 family. Liver microsomes are a recommended test system for various in vitro drug metabolism and pharmacokinetics (DMPK) studies. CLint values lower than […] are considered suitable for drug development.
Liver Microsome Metabolic Stability Assay (NADPH): The liver microsome stability assay was evaluated through pre-incubation with HLMs. A liver microsome mixture (pooled from multiple donors) at a concentration of 0.5 mg/mL, and the test compound at a concentration of 1 μM, were warmed in the presence of a NADPH regenerating system (about 1.0 mM) at 37° C. Positive controls, including testosterone (a CYP3A4 substrate), propafenone (a CYP2D6 substrate), and diclofenac (a CYP2C9) substrate, were concurrently incubated with the HLMs, in the presence of the NADPH regenerating system (1.0 mM). Samples were extracted during incubation at multiple intervals: 0, 5, 15, 30, 45 and 60 minutes. To terminate the reactions, the samples were promptly mixed with cooled acetonitrile that included an internal standard (IS). An additional compound was incubated with the HLMs in the absence of the NADPH regeneration system, from which a sample was taken at the 60-minute interval.
The clearance of the test compound in the samples was subsequently analyzed by LC-MS/MS based on the peak area ratios of the analyte to the IS.
The following equation was used to calculate the microsome clearance: […]
Liver weight: 40 grams/kg, 30 grams/kg, 32 grams/kg, 20 grams/kg and 88 grams/kg, for rat, monkey, dog, human and mouse, respectively.

[3] = molecular target: T1, hTRPV1 (Homo sapiens, UniProt Q8NER1); test: hTRPV1 dual activity electrophysiology, CHO cells co-expressing hKv7.2/3 and hTRPV1; format: cell-based; conditions: Kv7.2/3 co-expressed and activated, capsaicin; read-out: Dual hTRPV1 / Dual Expressing CHO, CAP IC50
T1 construct: CDS of NM_080704.4, inserted into the multiple cloning site of pcDNA3.1(+); host or cells: CHO/hKv7.2/3
Protocol: Cell culture and DNA transfection: CHO/hKv7.2/3 cells were transfected with hTRPV1 DNA constructs (CDS of NM_080704.4, inserted into the multiple cloning site of pcDNA3.1(+) between the Hind III and BamH I restriction site, Genscript). For CHO transfection, 1×10^6 cells were suspended in a reaction mix (Amaxa™ 4D-Nucleofector™-LONZA) containing 5 μg of hTRPV1 DNA and 0.5 μg of GFP DNA (for cells selection) in a cuvette.
The cells were transformed (Amaxa, DT-133 program for CHO transfection with p-3 Kit) and recovered for 10 minutes at RT in the hood. Then cells were re-suspended in a 10 mL antibiotic (Ab)-free medium suspension and were plated on Gelatin or PLL-coated cover glass in different cell densities. On the next morning, the medium was changed to full medium containing the CHO/hKv7.2/3 cell line selection antibiotics.
Extracellular (Bath) solution: The solution was composed of (in mM): NaCl, 140; KCl, 4; CaCl2, 1.8; MgCl2, 1.2; Glucose, 11; HEPES, 5.5. pH was adjusted to 7.3 with NaOH. Osmolarity was adjusted to 310 mOsm with Sucrose.
Intracellular (Pipette) solution: Pipettes were pulled from borosilicate glass (Warner Instrument Corp, USA) with a resistance of 3-7 MΩ and were filled with internal solution composed of (in mM): KCl, 130; MgCl2, 1; K ATP, 5; EGTA, 5; HEPES, 10. pH was adjusted to 7.3 with KOH. Osmolarity was adjusted to 290 mOsm with Sucrose.
A programmable valve-linked pressurized perfusion system was used for local application of compounds nearby the cell recorded in a consistent flow rate of 2-3 mL/minute. Series resistance was corrected and data were sampled at 5 kHz and low pass filtered at 2.4 kHz using MultiClamp 700B amplifier with pCLAMP11 software (Molecular Devices, USA).
At least 48 hours following cell transfection and plating, cells were recorded to assess the TRPV1 dual activity. Membrane potential was held at −90 mV. To measure the inhibitory effects of the tested compounds on hTRPV1 dual activity the following protocol was performed:
Cells were perfused with vehicle-only containing bath solution. After 30 seconds, a single −40 mV 1.5 second step was applied for Kv7.2/3 activation and 30 seconds later capsaicin (1 μM) was applied for 6 seconds to activate the TRPV1.
Cells perfusion was changed to a compound-containing bath solution, and after 2 minutes and 30 seconds of compound application, a single −40 mV 1.5 second step was applied for Kv7.2/3 activation and 30 seconds later capsaicin (1 μM) was applied for 6 seconds to activate the TRPV1.
Cells perfusion was thereafter changed back to vehicle only-containing bath solution. After 30 seconds, a single −40 mV 1.5 step was applied for Kv7.2/3 activation and 30 seconds later capsaicin (1 μM) was applied for 6 seconds to activate the TRPV1 followed by a capsaicin wash out.
The drug current response, when capsaicin was injected following 3 minutes of pre-incubation with the test compound, was divided by the averaged control currents, induced without compound, before compound incubation and following its washout, to evaluate the drug/control response.

[4] = Metabolite identification (Met-ID), human hepatocytes; format: in vitro ADME; conditions: human hepatocytes
Protocol: Cell culture and incubation: Cryopreserved hepatocyte cells, from human and rat sources, were purchased from commercial sources or in-house production, and were cultured in Williams' Medium E supplemented with glutamine and HEPES, in a humidified 5% CO2 incubator at 37° C., to a cell density of […]. Then, solutions of test compounds at a concentration of 10 μM, or 7-Ethoxycoumarin, as a positive control, at a concentration of 30 μM, in Eagle's Minimum Essential Medium, Catalog No. 30-2003 (ATCC) supplemented with 20% fetal bovine serum, were introduced and the mixture was incubated for 120 minutes, or other specified time points.
The samples were analyzed for metabolites using an LC-MS method developed on […] and PDA systems. Comparative analyses of mass spectra and ion fragmentation between the parent compound and its metabolites were carried out, and metabolic profiling was determined using the mass spectrometric and/or PDA (UV) response. Hypothetical structures of metabolites and their metabolic pathways were proposed.

[5] = tested on: CYP3A4; test: CYP inhibition / time-dependent inhibition, CYP3A4_Midazolam; format: in vitro ADME, human; conditions: role: inhibitor; substrate midazolam 2.0 μM; CYP TDI ratio
Protocol: The time-dependent inactivation potency of the test compound to CYP enzymatic activities was assessed by the pre-incubation of the human liver microsomes with the test compound in the presence and absence of NADPH, followed by the incubation with the discrete marker substrates, as follows.
Pre-incubation with human liver microsomes (HLMs): The TDI inactivation potency on CYP enzymatic activities was evaluated through pre-incubation with HLMs (Corning). A liver microsome mixture at a concentration of 0.1 mg/mL, and the test compound at 8 different concentrations (0, 0.05, 0.165, 0.5, 1.65, 5.0, 16.5, or 50.0 μM) was warmed at 37° C. for 10 minutes. Concurrently, a set of known time-dependent inactivators was also prepared in duplicate for comparison. Following this, NADPH (1.0 mM) was added to one group (Group 1), and an equal volume of potassium phosphate buffer to the second group (Group 2), marking the beginning of a 30-minute pre-incubation at 37° C.
Incubation: After pre-incubation, the marker substrate, or marker substrate plus NADPH was added to the mixture, thereby initiating the incubation. The duration of the incubation was dependent on the type of CYP isoform being evaluated. For example, with the CYP3A isoform, the mixture was incubated over 3 minutes utilizing midazolam as the marker substrate (2.0 μM), verapamil as the standard inactivator (3.5 μM).
Termination of Reaction: Following the incubation, ice-cooled acetonitrile containing the internal standard (IS) was added to halt the reactions. Metabolites generated from the marker substrates were then measured via LC-MS/MS, assessed based on peak area ratios of the analyte to IS.

[6] = Rat pharmacokinetics; format: in vivo; conditions: rat, plasma
Protocol: The pharmacokinetic (PK) properties of test compound following single intravenous (IV) bolus and oral gavage (PO) administration in male Sprague-Dawley (SD) rats were determined in this study.
Test compound administration: Six male Sprague Dawley (SD) rats were divided into two designated groups, Group 1 and Group 2, each composed of three rat subjects. Group 1 animals were subjected to a single intravenous bolus administration of the test compound at a dosage of 1 mg/kg. Group 2 animals were administered with the test compound orally in a single dose, at a concentration of 10 mg/kg. Throughout the study, the animals had unhindered access to food. The test compound was administered at a concentration of 0.5 mg/mL and dose volume of 2 mL/kg for Group 1, and at a concentration of 1 mg/mL and dose volume of 10 mL/kg, for Group 2.
Sample extraction and analysis: Plasma samples were systematically collected at varying time points of 0.083 (only for Group 1), 0.25, 0.5, 1, 2, 4-, 6-, 8-, and 24-hours post-dose. LC-MS/MS was used to determine the test compound's concentration within the collected plasma samples. Data reflecting plasma concentration in correlation to time were graphically represented and subjected to a non-compartmental analysis using the Phoenix WinNonlin 6.3 software program. The resulting pharmacokinetic parameters, including Clearance (Cl), Volume of distribution at steady state (Vdss) and initial concentration (C0) for intravenous administration; peak concentration (Cmax), time of peak concentration (Tmax), and bioavailability (% F) for extravascular administration; and half-life (T1/2), Area Under Curve from time zero to time t (AUC(0-t)), Area Under Curve from time zero to infinity (AUC(0-inf)), Mean Residence Time from time zero to time t (MRT(0-t)), Mean Residence Time from time zero to infinity (MRT(0-inf)) for all routes, were systematically calculated.

[7] = 1-octanol/phosphate buffer, read-out: LogD

T1 sequence (Q8NER1 whole entry): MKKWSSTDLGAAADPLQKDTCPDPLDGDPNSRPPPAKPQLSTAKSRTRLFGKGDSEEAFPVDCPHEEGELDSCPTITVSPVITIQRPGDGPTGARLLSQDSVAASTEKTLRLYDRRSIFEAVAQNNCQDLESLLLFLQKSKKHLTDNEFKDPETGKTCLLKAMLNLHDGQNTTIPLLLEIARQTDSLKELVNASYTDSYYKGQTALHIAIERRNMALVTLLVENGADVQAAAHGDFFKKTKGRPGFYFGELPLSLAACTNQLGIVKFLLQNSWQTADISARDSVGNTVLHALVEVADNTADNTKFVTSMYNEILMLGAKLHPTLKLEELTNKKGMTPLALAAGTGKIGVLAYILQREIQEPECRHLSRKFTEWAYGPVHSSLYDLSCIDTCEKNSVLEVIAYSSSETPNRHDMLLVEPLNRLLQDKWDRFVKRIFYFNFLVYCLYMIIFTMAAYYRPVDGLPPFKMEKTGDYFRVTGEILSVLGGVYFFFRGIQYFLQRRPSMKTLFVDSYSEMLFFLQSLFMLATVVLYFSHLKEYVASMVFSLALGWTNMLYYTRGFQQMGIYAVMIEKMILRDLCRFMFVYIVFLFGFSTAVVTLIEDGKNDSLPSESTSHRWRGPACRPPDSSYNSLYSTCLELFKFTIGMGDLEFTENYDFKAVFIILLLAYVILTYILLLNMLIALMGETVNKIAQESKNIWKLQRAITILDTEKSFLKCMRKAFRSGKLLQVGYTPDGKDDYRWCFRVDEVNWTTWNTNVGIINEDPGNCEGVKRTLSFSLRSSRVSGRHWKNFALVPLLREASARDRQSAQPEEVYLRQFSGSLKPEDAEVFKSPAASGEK

SMILES | logD [1] | HLM and/or Rat PK clearance rates compared to compound 661 [2] | HLM T1/2 [2] [min] | IC50 [3] [nM] | Human Hepatocytes MetID (glutathione conjugation) [4] | logD [1, 7] | CYP-TDI (midazolam), (−)NADPH/(+)NADPH Ratio CYP3A4 [5] | half-life at 1 µM [2] [min] | clearance ([6]; iv, 1 mg/kg, read-out: PK: Cl) [mL/min/kg] | bioavailability ([6]; po, 10 mg/kg, read-out: PK: Oral BA) [%]
O=C(Cc1cc(-n2cc(Cl)c3cc(Cl)cc(Cl)c32)ncn1)NCCO [Compound 851] | 3.38 | improved HLM and/or Rat PK clearance rates compared to compound 661 | 60.6 | 1080 | did not indicate the presence of glutathione conjugation |  |  |  |  | 
O=C(Cc1nccc(-n2cc(Cl)c3cc(Cl)cc(Cl)c32)n1)NCCO [Compound 767] |  | improved HLM and/or Rat PK clearance rates compared to compound 661 |  |  | did not indicate the presence of glutathione conjugation and None | 3.3 | 1.20 | 61.9 | 42.5 | 79.7
CC(C)(C)c1cn(-c2cncc(CC(=O)N[C@@H]3COC[C@H]3O)c2)c2c(Cl)cc(Cl)cc12 [Compound 800] |  |  |  |  |  | > 4.1 | >2.67 | 15.4 |  | 
O=C(Cc1cncc(N2CC3(CC3)c3cc(Cl)cc(Cl)c32)c1)NC1COCC1O (stereo not shown) [Compound 730] | 3.22 |  | 9.9 |  |  |  | >1.57 |  |  | 
O=C(Cc1cncc(-n2cc(C(F)(F)F)c3cc(Cl)cc(Cl)c32)c1)N[C@@H]1COC[C@H]1O [Compound 770] |  |  |  |  |  | 3.88 | >1.9 | 34.8 |  | 
CC1CN(c2cncc(CC(=O)NC3COCC3O)c2)c2c(Cl)cc(Cl)cc21 (mixture of isomers) [Compound 710] | 2.88 |  | 10.1 |  | did not indicate the presence of glutathione conjugation |  | 1.22 |  |  | 
CC1(C)CN(c2cncc(CC(=O)NC3COCC3O)c2)c2c(Cl)cc(Cl)cc21 (stereo not shown) [Compound 720] | 3.24 |  | 6.1 |  |  |  | >1.6 |  |  | 
O=C(Cc1cncc(-n2cc(C3CC3)c3cc(Cl)cc(Cl)c32)c1)N[C@@H]1COC[C@H]1O [Compound 790] |  |  |  |  |  | 4.29 | 2.04 | 26.7 |  | 
